# Assay results: patent US20220354849A1, “COMPOSITION FOR PREVENTING OR TREATING METABOLIC LIVER DISEASE” (STANDIGM INC., priority 2019, published 2022)
# Where “and” joins values, the source holds several entries; their conditions need not be identical. Identical values can stand only once.
# Legend:
# NASH model mice [1] = assay: NASH model mice (STZ + high-fat diet), intraperitoneal trametinib study: liver histology, NAFLD activity score, fibrosis area, liver weight; assay type: in vivo, mouse (C57BL/6); parameters: key to NAFLD activity score (NAS): NAS: sum of steatosis, inflammation, ballooning scores (Kleiner criteria); key to steatosis score / ballooning score: severity score per Kleiner's criteria on H&E sections; fibrosis area score (sirius red-positive area): unit not given here; details: for fibrosis area score (sirius red-positive area) / NAFLD activity score (NAS): telmisartan 10 mg/kg p.o., once daily 6 to 9 weeks of age; for fibrosis area score (sirius red-positive area): vehicle 0.89±0.19; for NAFLD activity score (NAS): vehicle 4.38±0.52
# Text: (§1) Pathogen-free C57BL/6 mice on the 14th day of pregnancy were obtained from Japan SLC, Inc. (Japan).
# (§2) NASH was established in male mice by a single subcutaneous injection of […] streptozotocin (STZ, Sigma, USA) 2 days after birth and feeding with a high-fat diet (CLEA Japan Inc., Japan) ad libitum after 4 weeks of age (day 28±2).
# On the day before the start of administration based on the body weight of mice, the NASH mice at 6 weeks of age (day 42±2) prepared in Example 1 were randomly divided into 3 groups of 8 mice.
# The present inventors selected trametinib as a substance expected to have a therapeutic effect on non-alcoholic steatohepatitis through a screening method using artificial intelligence (AI) deep learning technology. In order to identify whether the substance has an effect on non-alcoholic steatohepatitis, the 3 groups of mice were each intraperitoneally or orally administered with the following compounds at an amount of about […]. As the negative control group of trametinib in the present invention, the vehicle administration group was treated with a solvent of the same amount used for compound dissolution. Telmisartan (Boehringer Ingelheim GmbH, Germany) was used in the positive control group. The telmisartan is a compound which has anti-NASH, anti-fibrosis, and anti-inflammatory effects in NASH and in a liver disease animal model related to NASH.
# Group 1 (vehicle administration group: negative control group): 8 NASH mice were intraperitoneally administered with a vehicle (4% DMSO in saline) in a volume of 5 mL/kg once daily from 6 weeks to 9 weeks of age.
# Group 2 (telmisartan administration group: positive control group): 8 NASH mice were orally administered with purified water supplemented with telmisartan at a dose of 10 mg/kg once daily from 6 weeks to 9 weeks of age.
# Group 3 (trametinib administration group: experimental group): 8 NASH mice were intraperitoneally administered with a vehicle supplemented with trametinib at a dose of 2 mg/kg once daily from 6 weeks to 9 weeks of age.
# (§3) The body weight of each mouse was measured daily during the administration period, and the survival rate, clinical symptoms, and behaviors of each mouse were monitored daily.
# For histological analysis of liver tissue, mice in Groups 1 to 3 were sacrificed at 9 weeks of age, and the liver was excised therefrom.
# For H&E staining, after sectioning liver tissue, a liver tissue slide fixed with paraffin was immersed in a xylene solution for 3 minutes to remove the paraffin. Thereafter, in order to remove the xylene, the liver tissue slide was immersed in 100% ethanol for 3 minutes and then hydrated with distilled water. Subsequently, the liver tissue slide was immersed in a hematoxylin solution for 5 to 10 minutes and then hydrated with distilled water for 5 minutes, followed by quickly immersing it twice in a 1% HCl solution, and then hydrating with distilled water. Then, the liver tissue slide was immersed in a 1% ammonia solution for 2 minutes to stain the tissue blue. Thereafter, the liver tissue stained blue was immersed in an eosin solution for 2 minutes, followed by immersing the resultant in ethanol for about 3 to 5 minutes. Lastly, the liver tissue was immersed in a xylene solution, whereupon the thus-stained liver fragment was observed under a microscope.
# The NAFLD activity score (NAS) is a combined value obtained by considering each condition of steatosis, inflammation, and ballooning, which are observed in a liver section stained with H&E. The NAFLD score was calculated according to Kleiner's criteria (Kleiner DE et al., 2005).
# Steatosis, inflammation, and ballooning scores were determined according to severity of symptoms based on observation in H&E-stained liver sections.
# For sirius red staining, a sirius red reagent was maintained in an equilibrium state and stirred gently. […]
# NASH model mice [2] = assay: NASH model mice (STZ + high-fat diet), oral trametinib study: liver histology, NAFLD activity score, fibrosis area, liver weight; assay type: in vivo, mouse (C57BL/6); parameters: fibrosis area score (sirius red-positive area): unit not given here; details: for fibrosis area score (sirius red-positive area) / NAFLD activity score (NAS): telmisartan 10 mg/kg p.o., once daily 6 to 9 weeks of age; for fibrosis area score (sirius red-positive area): vehicle 0.69±0.13; for NAFLD activity score (NAS): vehicle 4.29±0.49
# Text: as §1, §2
# In order to determine a safe oral administration dose of trametinib, as in Example 2, the NASH mice in Example 1 were randomly divided into 3 groups of 7 or 8 mice.Thereafter, the mice of 3 groups were orally administered with the following compounds at about […].
# Group 1 (vehicle administration group:negative control group): 7 NASH mice were orally administered with a vehicle (1% DMSO in saline) in a volume of 10 mL/kg once daily from 6 weeks to 9 weeks of age.
# Group 2 (telmisartan administration group:positive control group): 8 NASH mice were orally administered with purified water supplemented with telmisartan at a dose of 10 mg/kg (in a volume of 10 mL/kg) once daily from 6 weeks to 9 weeks of age.
# Group 3 (trametinib administration group:experimental group): 8 NASH mice were orally administered with a vehicle supplemented with trametinib at a dose of 0.2 mg/kg (in a volume of 10 mL/kg) once daily from 6 weeks to 9 weeks of age.
# as §3
# For histological analysis of liver tissue, mice in Groups 1 to 3 of Example 5 were sacrificed at 9 weeks of age, and then H&E staining, NAFLD activity score measurement, and sirius red staining were performed according to the method of Example 3.
# The NAFLD activity score for liver tissue was estimated according to the method of Example 3-2.
# According to the method of Example 3-4, a percentage of a fibrosis area due to inflammation and a value of a sirius red-positive area were each estimated through sirius red staining.
# Statistical analysis of the data of the Examples above was performed using the Bonferroni Multiple Comparison Test. p<0.05 was regarded as statistically significant.
# [3] = trametinib 2 mg/kg i.p. once daily, 6 to 9 weeks of age
# [4] = trametinib 0.2 mg/kg p.o. once daily, 6 to 9 weeks of age
smiles,measurement,setting,value
CCCc1nc2c(C)cc(-c3nc4ccccc4n3C)cc2n1Cc1ccc(-c2ccccc2C(=O)O)cc1 [telmisartan],number of subjects with a steatosis score of 1,"NASH model mice [1]; telmisartan 10 mg/kg p.o. once daily, 6 to 9 weeks of age, 8 mice, vehicle 6 subjects",1
same,fibrosis area score (sirius red-positive area),NASH model mice [1]; trametinib 2 mg/kg i.p.,0.40±0.15 and 0.4
same,NAFLD activity score (NAS),NASH model mice [1]; trametinib 2 mg/kg i.p.,2.75±0.46
same,fibrosis area score (sirius red-positive area),NASH model mice [2]; trametinib 0.2 mg/kg p.o.,0.44±0.06 and 0.4
same,NAFLD activity score (NAS),NASH model mice [2]; trametinib 0.2 mg/kg p.o.,2.25±0.46
"CC(=O)Nc1cccc(-n2c(=O)n(C3CC3)c(=O)c3c(Nc4ccc(I)cc4F)n(C)c(=O)c(C)c32)c1 [trametinib, N—(3—{3—cyclopropyl—5-[(2-fluoro-4-iodophenyl)amino]-6,8-dimethyl-2,4,7-trioxo-3 ,4,6,7-tetrahydropyrido [4,3-d]pyrimidin-1(2H)-yl}phenyl)acetamide]",steatosis score,"NASH model mice [1]; trametinib 2 mg/kg i.p. once daily from 6 to 9 weeks of age, H&E liver sections, vehicle average 0.8",0
same,fibrosis (sirius red staining) compared to vehicle administration group,NASH model mice [1]; [3],alleviated
same,pathological conditions of liver tissue (H&E staining) compared to vehicle administration group,NASH model mice [1]; [3],improved
same,reduction of average liver weight compared to vehicle administration group,NASH model mice [1]; [3],40%
same,"subjects with a ballooning score of 0, share of total number of subjects",NASH model mice [1]; [3],100%
same,number of subjects with a ballooning score of 0,"NASH model mice [1]; trametinib 2 mg/kg i.p. once daily, 6 to 9 weeks of age, 8 mice",eight
same,ballooning score,"NASH model mice [1]; trametinib 2 mg/kg i.p. once daily, 6 to 9 weeks of age, all subjects",0
same,liver-to-body weight ratio,"NASH model mice [1]; trametinib 2 mg/kg i.p. once daily, 6 to 9 weeks of age, vehicle 7.0±0.8%",5.3±0.96%
same,average liver weight,"NASH model mice [1]; trametinib 2 mg/kg i.p. once daily, 6 to 9 weeks of age, vehicle 1444±106 mg",873 ± 218 mg
same,fibrosis area score (sirius red-positive area),NASH model mice [1]; trametinib 2 mg/kg i.p.,0.50±0.13 and 0.5
same,NAFLD activity score (NAS),NASH model mice [1]; trametinib 2 mg/kg i.p.,2.63±0.52
same,percentage of fibrosis area compared to vehicle administration group,"NASH model mice [1]; trametinib 2 mg/kg i.p., sirius red staining, p<0.0001",remarkable decrease
same,pathological conditions (sirius red staining) compared to vehicle administration group,NASH model mice [2]; [4],improved
same,pathological conditions of liver tissue (H&E staining) compared to vehicle administration group,NASH model mice [2]; [4],improved
same,steatosis score,"NASH model mice [2]; trametinib 0.2 mg/kg p.o. once daily, 6 to 9 weeks of age, mean ± standard deviation, vehicle 0.86±0.38",0.38±0.52 and 0.4
same,inflammation score,"NASH model mice [2]; trametinib 0.2 mg/kg p.o. once daily, 6 to 9 weeks of age, vehicle 2.71±0.49",1.75±0.71 and 1.8
same,liver-to-body weight ratio,"NASH model mice [2]; trametinib 0.2 mg/kg p.o. once daily, 6 to 9 weeks of age, vehicle 8.7±0.8%",7.4±0.8%
same,average liver weight,"NASH model mice [2]; trametinib 0.2 mg/kg p.o. once daily, 6 to 9 weeks of age, vehicle 1776±189 mg",1466 ± 169 mg
same,number of subjects with a steatosis score of 1,"NASH model mice [2]; trametinib 0.2 mg/kg p.o. once daily, 8 mice, vehicle 6 subjects",3
same,fibrosis area score (sirius red-positive area),NASH model mice [2]; trametinib 0.2 mg/kg p.o.,0.34±0.15 and 0.3
same,NAFLD activity score (NAS),NASH model mice [2]; trametinib 0.2 mg/kg p.o.,2.88±1.13
same,percentage of fibrosis area compared to vehicle administration group,"NASH model mice [2]; trametinib 0.2 mg/kg p.o., sirius red staining",reduced
